molecular target: T1, Ba/F3 cell EGFR Exon20 ins NPH (Homo sapiens, UniProt P00533, INS773NPH); assay: Ba/F3 cell proliferation suppression, EGFR Exon20 ins NPH; format: cell-based; conditions: GI50 class; Ba/F3 cell line with NPH inserted at Exon20 of EGFR; 72 hours
T1 construct: expressed in transfected cells; host or cells: Ba/F3
Summary of the method: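 After 72 h compound exposure (twelve 3-fold steps, 0.3 nM–50 um final), live cells were measured by CellTiter-Glo luminescence and growth expressed as % of control to derive GI50. Cells were seeded at 3000–5000 per well a day earlier; Ba/F3 medium contained IL-3; three repeats.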

Row | Ba/F3 (NPH) Activity | SMILES
1 | A (GI50 < 50 nM) | C=CC(=O)Nc1cc(Nc2cc(N3OCC[C@@H]3Cc3ccccc3)ncn2)c(OC)cc1N1CCC(N2CCOCC2)CC1 [compound 965, N-(5-((6-((S)-3-benzylisoxazolidine-2-yl)pyrimidine-4-yl)amino)-4-methoxy-2-(4-morpholinopiperidine-1-yl)phenyl)acrylamide]
2 | C (500 nM ≤ GI50 < 5000 nM) | C=CC(=O)Nc1cc(Nc2cc(N3OCC[C@@H]3Cc3cccc(N(C)C)c3)ncn2)c(OC)cc1N1CCN(C2CC2)CC1 [compound 1043, N-(2-(4-cyclopropylpiperazine-1-yl)-5-((6-((S)-3-(3-(dimethylamino)benyl)isoxazolidine-2-yl)prymidine-4-yl)amino)-4-methoxyphenyl) acrylamide]
3 | A (GI50 < 50 nM) | C=CC(=O)Nc1cc(Nc2cc(N3OCC[C@@H]3c3ccc(Cl)c(F)c3)ncn2)c(OC)cc1N1CCC(N2C[C@@H]3C[C@H]2CN3C)CC1 [compound 857, N-(5-((6-((R)-3-(4-chloro-3-fluorophenyl)isoxazolidine-2-yl)pyrimidine-4-yl)amino)-4-methoxy-2-(4-((1S,4S)-5-methyl-2,5-diazabicyclo[2.2.1]heptane-2-yl)piperidine-1-yl)phenyl)acrylamide]
4 | A (GI50 < 50 nM) | C#Cc1cccc([C@H]2CCON2c2cc(Nc3cc(NC(=O)C=C)c(N4CCC(N(C)C)CC4)cc3OC)ncn2)c1 [compound 647, N-(2-(4-(dimethylamino)piperidine-1-yl)-5-((6-((R)-3-(3-ethynylphenyl)isoxazolidine-2-yl)pyrimidine-4-yl)amino)-4-methoxyphenyl) acrylamide]
5 | A (GI50 < 50 nM) | C=CC(=O)Nc1cc(Nc2cc(N3OCC[C@@H]3c3c(F)ccc(F)c3Cl)ncn2)c(OC)cc1N1CCC(N2CCN(C3CC3)CC2)CC1 [compound 933, N-(5-((6-((R)-3-(2-chloro-3,6-difluorophenyl)isoxazolidine-2-yl)pyrimidine-4-yl)amino)-2-(4-(4-cyclopropylpiperazine-1-yl)piperidine-1-yl)-4-methoxyphenyl) acrylamide]

Further lines, the molecule ahead of its results:

Row | SMILES | Ba/F3 (NPH) Activity
6 | C=CC(=O)Nc1cc(Nc2cc(N3OCC[C@@H]3c3ccc(C)nc3)ncn2)c(OC)cc1N1CCC(N2CCC(N3CCOCC3)CC2)CC1 [Example 235, N-(4-methoxy-5-((6-((R)-3-(6-methylpyridine-3-yl)isoxazolidine-2-yl)pyrimidine-4-yl)amino)-2-(4-morpholino-[1,4'-bipiperidine]-1'-yl)phenyl)acrylamide] | B (50 nM ≤ GI50 < 500 nM)
7 | C=CC(=O)Nc1cc(Nc2cc(N3OCC[C@@H]3c3cccc(Cl)c3C)ncn2)c(OC)cc1N1CCC(N2CCN(CC)CC2)CC1 [compound 487, N-(5-((6-((R)-3-(3-chloro-2-methylphenyl)isoxazolidine-2-yl)pyrimidine-4-yl)amino)-2-(4-(4-ethylpiperazine-1-yl)piperidine-1-yl)-4-methoxyphenyl) acrylamide] | A (GI50 < 50 nM)
8 | C=CC(=O)Nc1cc(Nc2cc(N3OCC[C@@H]3c3cccc(F)c3)ncn2)c(OC)cc1N1CCC(N2CCN(CC)CC2)CC1 [Example 248, N-(2-(4-(4-ethylpiperazine-1-yl)piperidine-1-yl)-5-((6-((R)-3-(3-fluorophenyl)isoxazolidine-2-yl)pyrimidine-4-yl)amino)-4-methoxyphenyl) acrylamide] | A (GI50 < 50 nM)
9 | C=CC(=O)Nc1cc(Nc2cc(N3OCC[C@@H]3c3cccc4ccccc34)ncn2)c(OC)cc1N(C)CCN(C)C [compound 440, N-(2-((2-(dimethylamino)ethyl) (methyl)amino)-4-methoxy-5-((6-((R)-3-(naphthalene-1-yl)isoxazolidine-2-yl)pyrimidine-4-yl)amino)phenyl)acrylamide] | A (GI50 < 50 nM)

Source: patent publication US12157730B2, “Heteroaryl derivative, method for producing same, and pharmaceutical composition comprising same as effective component” (VORONOI INC., priority 2019, dated 2024)
